Where “and” joins values, the source holds several entries; their conditions need not be identical. Equal values may be shown once. Toxic doses and inconclusive results are not listed. Rule for the calls: active = survival T/C of 150% or more; inactive = T/C below 125% in these data.
System: P388 leukemia ip, CD2F1 mice, survival T/C
Assay: NCI In Vivo Anticancer Drug Screen. Data for tumor model P388 Leukemia (intraperitoneal) in CD2F1 (CDF1) mice
Settings: endpoint: median survival time, higher = longer survival
Outline: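 Mice carrying the transplanted tumor received test compound or vehicle. Survival was recorded in each group, and the value is the treated-group measurement divided by that of the vehicle-treated control group.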

[1] = dose: 50.0 mg/kg/injection, schedule: Q01DX009 (ip), vehicle: saline with Tween-80
[2] = dose: 100.0 mg/kg/injection, schedule: Q04DX002 (ip), vehicle: Klucel (hydroxypropylcellulose) (HPC)
[3] = dose: 200.0 mg/kg/injection, schedule: Q04DX002 (ip), vehicle: Klucel (hydroxypropylcellulose) (HPC)
[4] = dose: 400.0 mg/kg/injection, schedule: Q04DX002 (ip), vehicle: Klucel (hydroxypropylcellulose) (HPC)
[5] = dose: 100.0 mg/kg/injection, schedule: Q01DX009 (ip), vehicle: saline with Tween-80
[6] = dose: 25.0 mg/kg/injection, schedule: Q01DX009 (ip), vehicle: saline
[7] = dose: 50.0 mg/kg/injection, schedule: Q01DX005 (ip), vehicle: saline
[8] = dose: 50.0 mg/kg/injection, schedule: Q01DX009 (ip), vehicle: saline
[9] = dose: 100.0 mg/kg/injection, schedule: Q01DX005 (ip), vehicle: saline
[10] = dose: 50.0 mg/kg/injection, schedule: Q01DX005 (ip), vehicle: saline with Tween-80
[11] = dose: 60.0 mg/kg/injection, schedule: Q01DX005 (ip), vehicle: saline with Tween-80
[12] = dose: 120.0 mg/kg/injection, schedule: Q01DX005 (ip), vehicle: saline with Tween-80
[13] = dose: 240.0 mg/kg/injection, schedule: Q01DX005 (ip), vehicle: saline with Tween-80
[14] = dose: 60.0 mg/kg/injection, schedule: Q01DX005 (ip), vehicle: Klucel (hydroxypropylcellulose) (HPC)
[15] = dose: 120.0 mg/kg/injection, schedule: Q01DX005 (ip), vehicle: Klucel (hydroxypropylcellulose) (HPC)
[16] = dose: 240.0 mg/kg/injection, schedule: Q01DX005 (ip), vehicle: Klucel (hydroxypropylcellulose) (HPC)
[17] = dose: 100.0 mg/kg/injection, schedule: Q01DX005 (ip), vehicle: saline with Tween-80
[18] = dose: 200.0 mg/kg/injection, schedule: Q01DX005 (ip), vehicle: saline with Tween-80
[19] = dose: 6.25 mg/kg/injection, schedule: Q01DX005 (ip), vehicle: Klucel (hydroxypropylcellulose) (HPC)
[20] = dose: 12.5 mg/kg/injection, schedule: Q01DX005 (ip), vehicle: Klucel (hydroxypropylcellulose) (HPC)
[21] = dose: 25.0 mg/kg/injection, schedule: Q01DX005 (ip), vehicle: Klucel (hydroxypropylcellulose) (HPC)

Measured: T/C

CCCCOCN(COCCCC)c1ccc(C)cc1
inactive: dose: 12.5 mg/kg/injection, schedule: Q01DX009 (ip), vehicle: saline with Tween-80 88 % of control | dose: 25.0 mg/kg/injection, schedule: Q01DX009 (ip), vehicle: saline with Tween-80 104 % of control | [1] 112 % of control

CC(=O)c1c(C)nc2c(-c3ccccc3)[nH]c(C)c2c1C
inactive: dose: 100.0 mg/kg/injection, schedule: Q04DX003 (ip), vehicle: Klucel (hydroxypropylcellulose) (HPC) 100 % of control | dose: 200.0 mg/kg/injection, schedule: Q04DX003 (ip), vehicle: Klucel (hydroxypropylcellulose) (HPC) 102 % of control | dose: 400.0 mg/kg/injection, schedule: Q04DX003 (ip), vehicle: Klucel (hydroxypropylcellulose) (HPC) 111 % of control

Clc1ncnc2n[nH]c(Br)c12
inactive: dose: 100.0 mg/kg/injection, schedule: Q04DX002 (ip), vehicle: water 108 % of control | dose: 200.0 mg/kg/injection, schedule: Q04DX002 (ip), vehicle: water 116 % of control | dose: 400.0 mg/kg/injection, schedule: Q04DX002 (ip), vehicle: water 107 % of control

COc1cccc2c1C(=O)c1c(O)c3c(c(O)c1C2=O)C[C@@](O)(C(C)=O)C[C@@H]3OC1CC(N(C)Cc2ccccc2)C(O)C(C)O1 (stereo partly specified)
active: dose: 25.0 mg/kg/injection, schedule: Q04DX003 (ip), vehicle: distilled water + Tween-80 172 % of control
inactive: dose: 3.13 mg/kg/injection, schedule: Q04DX003 (ip), vehicle: distilled water + Tween-80 111 % of control | dose: 6.25 mg/kg/injection, schedule: Q04DX003 (ip), vehicle: distilled water + Tween-80 101 % of control | dose: 12.5 mg/kg/injection, schedule: Q04DX003 (ip), vehicle: distilled water + Tween-80 118 % of control

c1ccc2c3c(ccc2c1)OP1(=NP(N2CC2)(N2CC2)=NP(N2CC2)(N2CC2)=N1)Oc1ccc2ccccc2c1-3
inactive: [2] 101 % of control and 117 % of control | [3] 100 % of control | [4] 108 % of control | dose: 800.0 mg/kg/injection, schedule: Q04DX002 (ip), vehicle: Klucel (hydroxypropylcellulose) (HPC) 102 % of control

O=[N+]([O-])c1ccc(Cl)c2c([N+](=O)[O-])cccc12
inactive: [1] 102 % of control | [5] 110 % of control

O=C1C(=Cc2ccc(Cl)cc2)C(=O)N(c2ccccc2)C(=S)N1c1ccccc1
inactive: [2] 101 % of control | [3] 93 % of control | [4] 89 % of control

COC(=O)CC(C(=O)OC)C(C(=O)OC)C(C(=O)OC)C(CC(=O)OC)C(=O)OC (stereo unspecified)
inactive: dose: 100.0 mg/kg/injection, schedule: Q04DX002 (ip), vehicle: saline with Tween-80 98 % of control | dose: 200.0 mg/kg/injection, schedule: Q04DX002 (ip), vehicle: saline with Tween-80 104 % of control | dose: 400.0 mg/kg/injection, schedule: Q04DX002 (ip), vehicle: saline with Tween-80 102 % of control

N#CCC1CCCC1=O (stereo unspecified)
inactive: [1] 103 % of control | [5] 99 % of control

CCC1CCCCN1C (stereo unspecified)
inactive: dose: 25.0 mg/kg/injection, schedule: Q01DX005 (ip), vehicle: saline 103 % of control | [6] 105 % of control | [7] 98 % of control | [8] 110 % of control | [9] 95 % of control

CS(=O)(=O)OCC#CCOS(C)(=O)=O
inactive: dose: 1.56 mg/kg/injection, schedule: Q01DX009 (ip), vehicle: Klucel (hydroxypropylcellulose) (HPC) 109 % of control | dose: 3.12 mg/kg/injection, schedule: Q01DX009 (ip), vehicle: Klucel (hydroxypropylcellulose) (HPC) 120 % of control

CS1=C2C(=O)CC(C)(C)CC2=Nc2ccccc21 (stereo unspecified)
inactive: dose: 12.5 mg/kg/injection, schedule: Q01DX005 (ip), vehicle: saline with Tween-80 104 % of control | dose: 25.0 mg/kg/injection, schedule: Q01DX005 (ip), vehicle: saline with Tween-80 104 % of control | [10] 99 % of control and 100 % of control

CCCN1C(=O)C2C3C=CC(C2C1=O)C1C2C(=O)N(CCC)C(=O)C2C31 (stereo unspecified)
inactive: dose: 100.0 mg/kg/injection, schedule: Q01DX001 (ip), vehicle: saline with Tween-80 92 % of control | dose: 200.0 mg/kg/injection, schedule: Q01DX001 (ip), vehicle: saline with Tween-80 96 % of control | dose: 400.0 mg/kg/injection, schedule: Q01DX001 (ip), vehicle: saline with Tween-80 101 % of control

COc1ccc(-c2cn3c([nH]c(=O)c4cc(Br)ccc43)c2C#N)cc1
inactive: [11] 91 % of control | [12] 93 % of control | [13] 87 % of control

C=C1C2(O)CCC(C2)C1(C)C (stereo unspecified)
inactive: [14] 108 % of control | [15] 106 % of control | [16] 100 % of control

Clc1ccc(-c2csc3nc(-c4cccs4)nn23)cc1
inactive: dose: 30.0 mg/kg/injection, schedule: Q01DX005 (ip), vehicle: Klucel (hydroxypropylcellulose) (HPC) 97 % of control | [14] 95 % of control | [15] 95 % of control | [16] 93 % of control

O=C(O)CCCC(C(=O)O)N1C(=O)c2ccccc2C1=O (stereo unspecified)
inactive: [10] 94 % of control | [17] 93 % of control | [18] 87 % of control

OC1C(O)C(O)C(O)C(O)C1O.[Cu+2].[Cu] (stereo unspecified)
inactive: dose: 3.12 mg/kg/injection, schedule: Q01DX005 (ip), vehicle: Klucel (hydroxypropylcellulose) (HPC) 93 % of control | [19] 93 % of control | [20] 94 % of control | [21] 100 % of control

CC(C)(CO)NO
inactive: [7] 106 % of control | [9] 103 % of control | dose: 200.0 mg/kg/injection, schedule: Q01DX005 (ip), vehicle: saline 104 % of control

COc1ccc(/C(C#N)=C\c2ccnc3ccccc23)c(OC)c1
inactive: dose: 12.5 mg/kg/injection, schedule: Q01DX009 (ip), vehicle: other 87 % of control | dose: 25.0 mg/kg/injection, schedule: Q01DX009 (ip), vehicle: other 91 % of control | dose: 50.0 mg/kg/injection, schedule: Q01DX009 (ip), vehicle: other 87 % of control | dose: 100.0 mg/kg/injection, schedule: Q01DX009 (ip), vehicle: other 87 % of control | dose: 200.0 mg/kg/injection, schedule: Q01DX009 (ip), vehicle: other 87 % of control

COc1ccccc1N=Nc1c(-c2cccs2)nn(C(=S)SC)c1C(F)(F)F
inactive: [11] 92 % of control | [12] 97 % of control | [13] 97 % of control

CC(=O)/C(=C(\c1ccccc1)N1CCOCC1)N1CCOCC1
inactive: dose: 50.0 mg/kg/injection, schedule: Q01DX005 (ip), vehicle: Klucel (hydroxypropylcellulose) (HPC) 99 % of control | dose: 100.0 mg/kg/injection, schedule: Q01DX005 (ip), vehicle: Klucel (hydroxypropylcellulose) (HPC) 100 % of control | dose: 200.0 mg/kg/injection, schedule: Q01DX005 (ip), vehicle: Klucel (hydroxypropylcellulose) (HPC) 107 % of control

COC(=O)C1(c2ccccc2)N=NN=C1N(C)C (stereo unspecified)
inactive: [10] 98 % of control | [17] 106 % of control | [18] 110 % of control

CCOC(=O)/C(C#N)=C/Nc1cc(C(=O)OC)ccc1C
inactive: [10] 88 % of control | [17] 90 % of control

CCN(CC)C(=S)n1c(=S)nc(N(CC)CC)sc1=S
inactive: [19] 109 % of control | [20] 98 % of control | [21] 108 % of control

c1ccc(Cn2ccnc2)nc1
inactive: dose: 50.0 mg/kg/injection, schedule: Q04DX003 (ip), vehicle: saline 103 % of control | dose: 100.0 mg/kg/injection, schedule: Q04DX003 (ip), vehicle: saline 100 % of control | dose: 200.0 mg/kg/injection, schedule: Q04DX003 (ip), vehicle: saline 101 % of control

[I][Hg][CH2]C1Cc2ccccc2O1 (stereo unspecified)
inactive: dose: 6.25 mg/kg/injection, schedule: Q01DX009 (ip), vehicle: saline 90 % of control | dose: 12.5 mg/kg/injection, schedule: Q01DX009 (ip), vehicle: saline 90 % of control | [6] 99 % of control | [8] 96 % of control
